The values that follow come from US8501777B2, “3,5-disubstituted phenyl-piperidines as modulators of dopamine neurotransmission” (NSAB, Filial AF Neurosearch Sweden AB, Sverige, priority 2005, dated 2013).

Usually ED50 stands for the midpoint of the dose-response relation. As usually defined, the melting point is the temperature of the solid-liquid transition. The IC50 is the point on the concentration scale where inhibition reaches its midpoint. Read a high IC50 as weaker potency in that assay. Broadly, the bioavailability is the share of a dose that reaches the circulation, judged against a reference dose that is usually intravenous.

Counter-ions that a name gives are not always drawn. Like-named read-outs stand apart in the source and are kept apart here.

For data set [1], the system named is rats pretreated with d-amphetamine. The data set is described as follows: Reduction of amphetamine-induced hyper-locomotion. The data set is classed as in vivo, rat. The settings on record: read-out: ED50 amf (reduction of amphetamine-induced hyper-locomotion, estimated ED50 values). How it is done: In this model, dopaminergic neurotransmission is increased by systemic administration of d-amphetamine at a dose that is sufficiently high to produce a large increase in locomotor activity. The ability of a compound to antagonize this hyperactivity reflects anti-dopaminergic properties, which are part of the dopaminergic stabiliser profile.
Behavioural activity was measured using eight Digiscan activity monitors (RXYZM (16) TAO, Omnitech Electronics, Columbus, Ohio, USA), connected to an Omnitech Digiscan analyzer and a Apple Macintosh computer equipped with a digital interface board (NB DIO-24, National Instruments, USA). Each activity monitor consisted of a quadratic metal frame (W×L 40×40 cm) equipped with photobeam sensors. During measurements of behavioural activity, a rat was put in a transparent acrylic cage (W×L×H, 40×40×30 cm) which in turn was placed in the activity monitor. Each activity monitor was equipped with three rows of infrared photobeam sensors, each row consisting of 16 sensors. Two rows were placed along the front and the side of the floor of the cage, at a 90° angle, and the third row was placed 10 cm above the floor to measure vertical activity. Photobeam sensors were spaced 2.5 cm apart. Each activity monitor was fitted in an identical sound and light attenuating box containing a weak house light and a fan.
Behavioural data from each activity monitor, representing the position (horizontal centre of gravity and vertical activity) of the animal at each time, were recorded at a sampling frequency of 25 Hz and collected using a custom written LABView™ application. The data from each recording session were stored and analyzed with respect to distance traveled. Each behavioural recording session lasted 60 min, starting approximately 4 min after the injection of test compound. […] The results are presented as counts/60 minutes, or counts/30 minutes, in arbitrary length units. Statistical comparisons were carried out using student's t-test vs the control group.
For most compounds, the evaluation is based on 16 amphetamine pre-treated animals over the dose range 0, 11, 33 and 100 μmol/kg s.c. in one single experiment, with complementary doses in separate experiments. Calculations are based on distance during the last 45 minutes of one hour of measurement. […] To estimate confidence levels for the parameters, the fit is repeated 100 times with a random evenly distributed squared weight (0 to 1) for every measurement value.

Data set [2] deals with 3,4 dihydroxyphenylacetic acid (DOPAC) in striatum. Nature of the data set: In vivo neurochemistry: DOPAC in striatum. Conditions: rat, 100 μmol/kg s.c. The text has this:
After the behavioural activity sessions, the rats were decapitated and their brains rapidly taken out and put on an ice-cold petri-dish. The limbic forebrain, the striatum, the frontal cortex and the remaining hemispheral parts of each rat were dissected and frozen. Each brain part was subsequently analyzed with respect to its content of monoamines and their metabolites.
The monoamine transmitter substances (NA (noradrenaline), DA (dopamine), 5-HT (serotonin)) as well as their amine (NM (normethanephrine), 3-MT (3-methoxytyramine)) and acid (DOPAC (3,4-dihydroxyphenylacetic acid), 5-HIAA (5-hydroxyindoleacetic acid), HVA (homovanillic acid)) metabolites are quantified in brain tissue homogenates by HPLC separations and electrochemical detection.
The analytical method is based on two chromatographic separations dedicated for amines or acids. Two chromatographic systems share a common auto injector with a 10-port valve and two sample loops for simultaneous injection on the two systems. Both systems are equipped with a reverse phase column (Luna C18(2), dp 3μ, 50*2 mm i.d., Phenomenex) and electrochemical detection is accomplished at two potentials on glassy carbon electrodes (MF-1000, Bioanalytical Systems, Inc.). Via a T-connection the column effluent is passed to the detection cell or to waste. […]

Data set [3] addresses hERG ion channel (Homo sapiens, UniProt Q12809). The data set is described as follows: hERG affinity by Rapid ICE automated patch-clamp (HEK293 cells stably transfected with HERG cDNA).
Description: Rapid ICE™ (Rapid Ion Channel Electrophysiology) is an automated patch-clamp assay utilising the PatchXpress 7000A system (Axon Instruments). Rapid ICE™ assesses the effect of test substances on HERG tail current recorded from HEK293 cells stably transfected with HERG cDNA.
HERG.T.HEK (HEK293 cells stably transfected with HERG cDNA) were obtained from the University of Wisconsin. These cells are held in cryogenic storage at Quintiles and also maintained in culture. The cells are continuously maintained in and passaged using minimum essential medium supplemented with 10% foetal bovine serum, 1% non-essential amino acids, 1% sodium pyruvate and 0.4 mg/ml geneticin. For use in Rapid ICE™ studies, 4 ml of the cells are placed into falcon tubes at a density of 2.5×10^5/ml. The falcon tubes are stored in a humidified, gassed (5% CO2) incubator at 37° C. and cells are used within 2.5 h of storage. Just prior to experimentation, these cells are centrifuged at 1000 rpm for 1 min, the supernatant decanted and the cells re-suspended in 150 μl of bath solution in a 1.5 ml eppendorf tube.
The PatchXpress system is primed with appropriate extracellular (bath) and intracellular (pipette) solutions prior to conducting a study. A 16 well sealchip (Sealchip16, Aviva Bio-sciences Corp) is loaded into the system and primed before preparing cells in the bath solution suspension. The cell eppendorf is placed into the designated position and the procedure commences with the trituration and dispersion of cells into each well (recording chamber) of the sealchip. The PatchXpress system follows the general principles of conventional whole-cell patch-clamping: a high resistance seal is formed between the patch electrode and an individual cell, the membrane across the electrode tip is ruptured and the whole-cell patch-clamp configuration is established. If the quality of the cell is judged to be poor, the experiment may be terminated at this point and if necessary, the process repeated on another sealchip.
Once a stable patch has been achieved, recording commences in voltage-clamp mode, with the cell initially clamped at −80 mV. The standard voltage profile is as follows: step from −80 mV to −50 mV for 200 ms, +20 mV for 4.8 s, step to −50 mV for 5 s then step to the holding potential of −80 mV. The step from −80 mV to the test command (+20 mV) results in an outward current (i.e. current flows out of the cell) and the step from the test command (+20 mV) to −50 mV results in the tail current (the tail current represents deactivation of the current over time). […] Each value represents the average current recorded from 4 sequential voltage pulses. For each cell the effects of the test substance is determined by calculating the residual current (% control) compared with vehicle pre-treatment. […]
Data set [4] relates to MK-801 pre-treated rats. Nature of the data set: Locomotor activity in MK-801 pre-treated rats. Type of data set: in vivo, rat. Conditions: MK-801 0.7 mg/kg i.p. 90 min before test compound, recorded 30-60 min after administration. How it is done:
Another animal model of antipsychotic activity is based on administration of the glutamate antagonist MK-801. Glutamate antagonists (i.e. NMDA antagonists), can induce psychoses in man (see Psychopharmacology, 4th Generation of progress Chapter 101, p. 1205 and 1207) and induce behavioural aberrations in animals. […] In this study the NMDA antagonist MK-801 (0.7 mg/kg i.p.) was used to create a hypoglutamatergic state where the rats display abnormal, hyperactive behaviour. Compounds in the present invention dose-dependently reverse the behavioural aberration induced by MK-801 (see Table 2).
Behavioural activity was measured using eight Digiscan activity monitors (RXYZM (16) TAO, Omnitech Electronics, Columbus, Ohio, USA), connected to an Omnitech Digiscan analyzer and a Apple Macintosh computer equipped with a digital interface board (NB DIO-24, National Instruments, USA). Each activity monitor consisted of a quadratic metal frame (W×L 40×40 cm) equipped with photobeam sensors. […]
Behavioural data from each activity monitor, representing the position (horizontal centre of gravity and vertical activity) of the animal at each time, were recorded at a sampling frequency of 25 Hz and collected using a custom written LABView™ application. The data from each recording session were stored and analyzed with respect to distance traveled. […]

A short description of data set [5]: Metabolic stability in rat liver microsomes. Type of data set: in vitro ADME. Conditions: 15 min incubation at 37° C., NADPH. The procedure: Rat liver microsomes were isolated as described by Forlin (1980) Effects of Clophen A50, 3-methylcholantrene, pregnenolone-16aq-carbonitrile and Phenobarbital on the hepatic microsomal cytochrome P-450-dependent monooxygenaser system in rainbow trout, salmo garirdneri, of different age and sex. Tox Appl Pharm. […]
1 μL of, 0.2 or 1 mM test substance diluted in water and 10 μL 20 mg/mL rat liver micro-some were mixed with 149 μL 37° C. buffer 1 and the reaction was started by addition of 40 μL 4.1 mg/mL NADPH. […] The test compound was analysed using HPLC-MS (Hewlett-Packard 1100MSD Series) with a Zorbax SB-C18 column (2.1*150 mm, 5 μm) using 0.03% formic acid and acetonitrile as mobile phase (gradient) or a Zorbax Eclipse XDB-C18 (3*75 mm, 3.5 μm) using 0.03% acetic acid and acetonitrile as mobile phase (gradient). The 15 min turnover was calculated as the fraction of test compound eliminated after 15 minutes, expressed in percent of 0 min levels, ie 100*[conc test compound at 0 min−concentration at 15 min]/conc at 0 min.
A general note: Microsomes from liver hold many membrane-bound enzymes, among them those of drug oxidation.

Data set [6] is described as follows: Oral bioavailability in rat. The data set is classed as in vivo. Conditions: plasma, oral 12.5 μmol/kg vs i.v. 5 μmol/kg, AUC ratio. The procedure: Experiments are performed 24 hours after implantation of arterial and venous catheters. Test compound is administered orally at 12.5 μmol/kg or intravenously at 5 μmol/kg using the venous catheters, n=3 per group. Arterial blood samples are then taken during […] at 0, 3, 9, 27, 60, 120, 180, 240, 300 and, 360 minutes after administration of the test compound. The oral bioavailability was calculated as the ratio of the AUC (Area under curve) obtained after oral administration over the AUC obtained after intravenous administration for each rat. The parameter AUC was calculated according to the following: AUC: the area under the plasma concentration versus time curve from time zero to the last concentration measured (Clast), calculated by the log/linear trapezoidal method.
The levels of test compound are measured by means of liquid chromatography-mass spectrometry (LC-MS). (Hewlett-Packard 1100MSD Series). The module include a quaternary pump system, vacuum degasser, thermostatted autosampler, thermostatted column compartment, diode array detector and API-ES spray chamber. […]
Extractions procedure: Plasma samples (0.25-0.5 ml) were diluted with water to 1 ml, and 60 pmol (100 μl) internal standard (−)-OSU6241 was added. […] The selective ion (MH^+) was monitored for each Example, and MH^+ 296 for (−)-OSU6241 ((3-[3-(ethylsulfonyl)phenyl]-1-propylpiperidine). […]

Setting [7] is: rat, test compound s.c., d-amphetamine 1.5 mg/kg i.p., distance during last 45 min of one hour.

Chain of hERG ion channel (Q12809 whole entry): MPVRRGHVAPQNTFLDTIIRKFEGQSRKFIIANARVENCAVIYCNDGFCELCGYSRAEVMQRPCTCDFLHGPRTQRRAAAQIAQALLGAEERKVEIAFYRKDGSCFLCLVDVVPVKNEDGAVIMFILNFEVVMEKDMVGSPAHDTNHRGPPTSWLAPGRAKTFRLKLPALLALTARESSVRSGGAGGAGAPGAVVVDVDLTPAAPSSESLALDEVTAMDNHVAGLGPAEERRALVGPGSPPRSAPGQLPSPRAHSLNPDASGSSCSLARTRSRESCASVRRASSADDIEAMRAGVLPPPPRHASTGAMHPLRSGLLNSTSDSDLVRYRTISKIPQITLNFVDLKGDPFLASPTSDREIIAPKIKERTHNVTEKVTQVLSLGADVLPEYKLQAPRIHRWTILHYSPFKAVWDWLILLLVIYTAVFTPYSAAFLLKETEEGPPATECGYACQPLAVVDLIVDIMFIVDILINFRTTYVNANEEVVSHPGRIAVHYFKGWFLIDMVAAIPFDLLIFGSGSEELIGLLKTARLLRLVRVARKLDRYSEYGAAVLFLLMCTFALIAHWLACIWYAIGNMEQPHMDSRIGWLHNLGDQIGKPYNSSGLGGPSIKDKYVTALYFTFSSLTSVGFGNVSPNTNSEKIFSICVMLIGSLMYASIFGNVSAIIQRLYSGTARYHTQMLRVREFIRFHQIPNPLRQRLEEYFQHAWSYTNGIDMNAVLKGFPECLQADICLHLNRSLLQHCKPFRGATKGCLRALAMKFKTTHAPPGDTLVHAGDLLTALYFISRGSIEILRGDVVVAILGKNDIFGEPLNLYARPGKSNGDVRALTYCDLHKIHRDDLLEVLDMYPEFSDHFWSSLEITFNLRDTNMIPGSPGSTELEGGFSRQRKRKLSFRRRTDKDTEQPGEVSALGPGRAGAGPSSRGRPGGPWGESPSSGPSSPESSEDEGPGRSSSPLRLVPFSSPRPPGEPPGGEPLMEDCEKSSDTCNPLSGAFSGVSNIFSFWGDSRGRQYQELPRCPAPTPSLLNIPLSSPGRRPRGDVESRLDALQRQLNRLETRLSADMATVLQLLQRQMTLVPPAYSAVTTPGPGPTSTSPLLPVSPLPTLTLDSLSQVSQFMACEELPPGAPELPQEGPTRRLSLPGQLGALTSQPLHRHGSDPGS

As to `CCCN1CCC(c2cccc(S(C)(=O)=O)c2)CC1`, the ED50 in data set [1] (Rattus norvegicus) was 52 µmol/kg.

Regarding `CCCN1CCC(c2cc(F)cc(S(C)(=O)=O)c2)CC1` (as salt: hydrochloric acid salt) [Example 1, 4-[3-fluoro-5-(methylsulfonyl)phenyl]-1-propylpiperidine], the melting point lay within 187 to 189 °C.

With `CCN1CCC(c2cc(F)cc(S(C)(=O)=O)c2)CC1` (as salt: hydrochloric acid salt) [Example 2, 1-ethyl-4-[3-fluoro-5-(methylsulfonyl)phenyl]piperidine], the melting point was in the range of 176 to 178 °C.

For the compound `CCCN1CCC(c2cc(F)cc(S(C)(=O)=O)c2)CC1` [Example 1, 4-[3-fluoro-5-(methylsulfonyl)phenyl]-1-propylpiperidine], the DOPAC in striatum in data set [2] is given as 318 % of control. Further, the 50% effective dose (ED50) in data set [1] (setting [7]) is 12 µmol/kg. The compound further had an IC50 in data set [3] of 9.8 µM. In addition, in data set [4], the “Locomotor activity, MK + example 100 μmol/kg” value is 20858 ± 4638 (P = 0.01) counts/30 min ± SEM. For the same compound, the “Turnover at 15 minutes in rat liver microsomes” value in data set [5] stood at 5%.

`CCN1CCC(c2cc(F)cc(S(C)(=O)=O)c2)CC1` [Example 2, 1-ethyl-4-[3-fluoro-5-(methylsulfonyl)phenyl]piperidine]: the DOPAC in striatum in data set [2] was 292 % of control. For the same compound, the bioavailability in data set [6] is ~85%. In data set [1] (setting [7]), the ED50 was 28 µmol/kg. The same compound gave an IC50 in data set [3] of 21.7 µM. Also, the “Locomotor activity, MK + example 100 μmol/kg” value in data set [4] is 24012 ± 5511 (P = 0.03) counts/30 min ± SEM. Further, in data set [5], the “Turnover at 15 minutes in rat liver microsomes” value was determined as 0%.

As for `CCCN1CCC(c2ccc(Cl)c(C(F)(F)F)c2)CC1` [reference compound], the ED50 in data set [1] (Rattus norvegicus) was 34 µmol/kg. Moreover, the IC50 in data set [3] is 0.61 µM.

Regarding `CCCN1CCC(c2cc(F)cc(C(F)(F)F)c2)CC1` [reference compound], in data set [1] (setting [7]), the ED50 was 14 µmol/kg. Also, 1.5 µM corresponded to half-maximal inhibition in data set [3] (IC50).
